Values of other authors, collected in US5891465A, “Delivery of biologically active material in a liposomal formulation for administration into the mouth” (BioZone Laboratories, Inc., priority 1996, dated 1999).

Experiments:
[1] = tablet for absorption through the buccal mucosa
[2] = tablets under the tongue

Structure (SMILES)	androgenic activity relative to oral tablets [1]	onset [2]
C[C@]12CCC(=O)C=C1CC[C@@H]1[C@@H]2CC[C@@]2(C)[C@H]1CC[C@]2(C)O [methyltestosterone]	twice the androgenic activity	
O=[N+]([O-])OCC(CO[N+](=O)[O-])O[N+](=O)[O-] [nitroglycerin]		rapid onset
